Earlier results in patent US20040167132A1, “Methods of treating conditions associted with an Edg-2 receptor” (priority 2003, published 2004).
Structures can show the parent of a compound that is named as a salt.

Assays:
Adrenergic β = conditions: radioligand; Wistar rat brain; historical value
[1] = molecular target: Adrenergic α1 non-selective
[2] = molecular target: Serotonin 5-HT1, non-selective; conditions: radioligand; Wistar rat cerebral cortex; historical value
Angiotensin AT2 = molecular target: T1, Angiotensin AT2 (Homo sapiens, UniProt P50052); conditions: radioligand; Human recombinant Hela cells; historical value
T1 construct: expressed in transfected cells; host or cells: HeLa cells
T1 sequence (P50052 1-363): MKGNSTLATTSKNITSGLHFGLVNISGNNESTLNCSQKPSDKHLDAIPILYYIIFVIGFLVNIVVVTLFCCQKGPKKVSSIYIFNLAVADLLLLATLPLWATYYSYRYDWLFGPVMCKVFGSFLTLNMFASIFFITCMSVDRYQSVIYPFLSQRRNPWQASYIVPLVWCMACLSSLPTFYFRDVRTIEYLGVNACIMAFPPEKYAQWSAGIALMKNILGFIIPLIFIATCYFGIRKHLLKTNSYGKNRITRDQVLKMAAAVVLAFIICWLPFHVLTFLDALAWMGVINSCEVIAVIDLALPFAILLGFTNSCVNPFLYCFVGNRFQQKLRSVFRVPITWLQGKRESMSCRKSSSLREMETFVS

For `CCCc1ccccc1OCC(O)CNC(C)C` (stereo not shown) [^3H Dihydroaplenolol, Dihydroaplenolol], the Kd (Adrenergic β) is listed as 500 pM.

For `COc1cc2nc(N3CCN(C(=O)c4ccco4)CC3)nc(N)c2cc1OC` [^3H Prazosin, Prazosin], the Kd [1] is listed as 290 pM.

For `NCCc1c[nH]c2ccc(O)cc12` [^3H Serotonin (5-HT) Trifluoroacetate, Serotonin (5-HT) Trifluoroacetate], the Kd [2] is given as 610 pM.

In the case of CGP-42112A [^125I CGP-42112A], the Kd (Angiotensin AT2) is listed as 12 pM.
